According to BigSolDB 2.1:

Cc1ccc(S(N)(=O)=O)cc1
Conditions | solubility (mole fraction)
in acetone, 273.15 K | 0.128
in acetone, 279.15 K | 0.137
in acetone, 283.65 K | 0.144
in acetone, 289.15 K | 0.154
in acetone, 293.65 K | 0.163
in acetone, 298.85 K | 0.173
in acetone, 303.25 K | 0.184
in acetone, 308.95 K | 0.197
in acetone, 313.15 K | 0.211
in acetone, 317.65 K | 0.227
in acetone, 322.15 K | 0.243
in acetonitrile, 273.15 K | 0.0408
in acetonitrile, 279.15 K | 0.047
in acetonitrile, 284.15 K | 0.0538
in acetonitrile, 289.15 K | 0.063
in acetonitrile, 294.15 K | 0.0722
in acetonitrile, 299.15 K | 0.0826
in acetonitrile, 303.65 K | 0.093
in acetonitrile, 309.15 K | 0.106
in acetonitrile, 313.15 K | 0.121
in acetonitrile, 319.15 K | 0.143
in acetonitrile, 324.75 K | 0.164
in cyclohexanone, 273.15 K | 0.122
in cyclohexanone, 279.15 K | 0.131
in cyclohexanone, 284.15 K | 0.139
in cyclohexanone, 289.15 K | 0.147
in cyclohexanone, 294.15 K | 0.157
in cyclohexanone, 299.15 K | 0.169
in cyclohexanone, 303.65 K | 0.18
in cyclohexanone, 309.15 K | 0.192
in cyclohexanone, 313.15 K | 0.206
in cyclohexanone, 319.15 K | 0.226
in cyclohexanone, 324.75 K | 0.244
in cyclopentanone, 273.15 K | 0.149
in cyclopentanone, 279.15 K | 0.158
in cyclopentanone, 284.15 K | 0.166
in cyclopentanone, 289.15 K | 0.175
in cyclopentanone, 294.15 K | 0.185
in cyclopentanone, 299.15 K | 0.196
in cyclopentanone, 303.65 K | 0.206
in cyclopentanone, 309.15 K | 0.218
in cyclopentanone, 313.15 K | 0.231
in cyclopentanone, 319.15 K | 0.249
in cyclopentanone, 324.75 K | 0.266
in dichloromethane, 273.15 K | 0.00336
in dichloromethane, 279.15 K | 0.00392
in dichloromethane, 284.15 K | 0.00458
in dichloromethane, 289.15 K | 0.00587
in dichloromethane, 294.15 K | 0.00705
in dichloromethane, 299.15 K | 0.00877
in dichloromethane, 303.65 K | 0.0103
in dichloromethane, 309.15 K | 0.0128
in dichloromethane, 312.15 K | 0.0143
in ethanol, 273.15 K | 0.0174
in ethanol, 279.15 K | 0.0203
in ethanol, 283.65 K | 0.0233
in ethanol, 289.15 K | 0.0268
in ethanol, 293.65 K | 0.0312
in ethanol, 298.85 K | 0.0361
in ethanol, 303.25 K | 0.0425
in ethanol, 308.95 K | 0.05
in ethanol, 313.15 K | 0.0592
in ethanol, 317.65 K | 0.0705
in ethanol, 322.15 K | 0.0842
in ethyl acetate, 273.15 K | 0.0364
in ethyl acetate, 279.15 K | 0.0401
in ethyl acetate, 283.65 K | 0.0442
in ethyl acetate, 289.15 K | 0.0481
in ethyl acetate, 293.65 K | 0.0541
in ethyl acetate, 298.85 K | 0.059
in ethyl acetate, 303.25 K | 0.0652
in ethyl acetate, 308.95 K | 0.0718
in ethyl acetate, 313.15 K | 0.0797
in ethyl acetate, 317.65 K | 0.0897
in ethyl acetate, 322.15 K | 0.1
in ethyl formate, 273.15 K | 0.023
in ethyl formate, 279.15 K | 0.0268
in ethyl formate, 284.15 K | 0.0308
in ethyl formate, 289.15 K | 0.0342
in ethyl formate, 294.15 K | 0.0391
in ethyl formate, 299.15 K | 0.0447
in ethyl formate, 303.65 K | 0.0507
in ethyl formate, 309.15 K | 0.0582
in ethyl formate, 313.15 K | 0.0655
in ethyl formate, 319.15 K | 0.0784
in ethyl formate, 324.75 K | 0.0914
in isobutanol, 273.15 K | 0.00456
in isobutanol, 279.15 K | 0.00562
in isobutanol, 283.65 K | 0.0069
in isobutanol, 289.15 K | 0.00846
in isobutanol, 293.65 K | 0.0103
in isobutanol, 298.85 K | 0.0124
in isobutanol, 303.25 K | 0.016
in isobutanol, 308.95 K | 0.0193
in isobutanol, 313.15 K | 0.0236
in isobutanol, 317.65 K | 0.0288
in isobutanol, 322.15 K | 0.0357
in isopentanol, 273.15 K | 0.00515
in isopentanol, 279.15 K | 0.00618
in isopentanol, 284.15 K | 0.00814
in isopentanol, 289.15 K | 0.00944
in isopentanol, 294.15 K | 0.0114
in isopentanol, 299.15 K | 0.0139
in isopentanol, 303.65 K | 0.0168
in isopentanol, 309.15 K | 0.0204
in isopentanol, 313.15 K | 0.0251
in isopentanol, 319.15 K | 0.0319
in isopentanol, 324.75 K | 0.039
in isopropanol, 273.15 K | 0.0077
in isopropanol, 279.15 K | 0.00943
in isopropanol, 283.65 K | 0.0114
in isopropanol, 289.15 K | 0.0137
in isopropanol, 293.65 K | 0.0167
in isopropanol, 298.85 K | 0.0201
in isopropanol, 303.25 K | 0.0246
in isopropanol, 308.95 K | 0.0301
in isopropanol, 313.15 K | 0.0365
in isopropanol, 317.65 K | 0.0447
in isopropanol, 322.15 K | 0.0552
in methanol, 273.15 K | 0.0316
in methanol, 279.15 K | 0.0362
in methanol, 283.65 K | 0.0415
in methanol, 289.15 K | 0.0473
in methanol, 293.65 K | 0.0544
in methanol, 298.85 K | 0.0626
in methanol, 303.25 K | 0.0724
in methanol, 308.95 K | 0.0836
in methanol, 313.15 K | 0.0971
in methanol, 317.65 K | 0.112
in methanol, 322.15 K | 0.131
in methyl acetate, 273.15 K | 0.0494
in methyl acetate, 279.15 K | 0.0558
in methyl acetate, 284.15 K | 0.062
in methyl acetate, 289.15 K | 0.0676
in methyl acetate, 294.15 K | 0.075
in methyl acetate, 299.15 K | 0.0833
in methyl acetate, 303.65 K | 0.0925
in methyl acetate, 309.15 K | 0.103
in methyl acetate, 313.15 K | 0.115
in methyl acetate, 319.15 K | 0.132
in methyl acetate, 324.75 K | 0.148
in n-butanol, 273.15 K | 0.00725
in n-butanol, 279.15 K | 0.00871
in n-butanol, 283.65 K | 0.0104
in n-butanol, 289.15 K | 0.0124
in n-butanol, 293.65 K | 0.0148
in n-butanol, 298.85 K | 0.0172
in n-butanol, 303.25 K | 0.0209
in n-butanol, 308.95 K | 0.0253
in n-butanol, 313.15 K | 0.0303
in n-butanol, 317.65 K | 0.0363
in n-butanol, 322.15 K | 0.044
in n-pentanol, 273.15 K | 0.00607
in n-pentanol, 279.15 K | 0.00712
in n-pentanol, 284.15 K | 0.00906
in n-pentanol, 289.15 K | 0.0107
in n-pentanol, 294.15 K | 0.0128
in n-pentanol, 299.15 K | 0.0153
in n-pentanol, 303.65 K | 0.0182
in n-pentanol, 309.15 K | 0.022
in n-pentanol, 313.15 K | 0.0271
in n-pentanol, 319.15 K | 0.0343
in n-pentanol, 324.75 K | 0.0416
in n-propanol, 273.15 K | 0.00916
in n-propanol, 279.15 K | 0.0111
in n-propanol, 283.65 K | 0.013
in n-propanol, 289.15 K | 0.0154
in n-propanol, 293.65 K | 0.0183
in n-propanol, 298.85 K | 0.0215
in n-propanol, 303.25 K | 0.0259
in n-propanol, 308.95 K | 0.0312
in n-propanol, 313.15 K | 0.0376
in n-propanol, 317.65 K | 0.0455
in n-propanol, 322.15 K | 0.0554
